Measurements taken from PubChem BioAssay AID1259408 (Genetic Toxicology Data Bank (GENE-TOX), 2018).
Calls of active or inactive are those of the source. The rule behind the calls is not given here.

System: GENE-TOX genotoxicity assays, various organisms and cells
Experiment: GENE-TOX mutagenicity studies
Details: for call: Assay Type: In vivo carcinogenicity studies, Assay Code: CCG+
[1] = Species/Cell Type: Nonhuman, Assay Type: Sister-chromatid exchange (SCE) in vitro, Assay Code: SC2+D, Dose Response: With dose response, Evaluation Type: Evaluation B (Post-1980)
[2] = Species/Cell Type: Mammalian polychromatic erythrocytes, Assay Type: Micronucleus test, chromosome aberrations, Assay Code: MNTT, Evaluation Type: Evaluation A (Pre-1980)
[3] = Species/Cell Type: Nonhuman, Evaluation Type: Evaluation A (Pre-1980)
[4] = Species/Cell Type: Escherichia coli polA (W3119 vs P3478), Assay Type: Rec-assay, DNA effects (bacterial DNA repair), Assay Code: RE1+, Evaluation Type: Evaluation A (Pre-1980)

With `O=C1CN(/N=C/C=C/c2ccc([N+](=O)[O-])o2)C(=O)N1` the mutagenic call (Species/Cell Type: Escherichia coli WP2, Assay Type: Tryptophan reverse gene mutation, Assay Code: WP2+, Evaluation Type: Evaluation A (Pre-1980)) was “active; positive” and the mutagenic call (Species/Cell Type: Escherichia coli WP2 UVRA, Assay Type: Tryptophan reverse gene mutation, Assay Code: WPU-, Evaluation Type: Evaluation A (Pre-1980)) was “inactive; negative”.
`Cc1c2ccccc2cc2c1ccc1cccc(C)c12` was tested, and the mutagenic call (Species/Cell Type: Drosophila melanogaster, Assay Type: Sex-linked recessive lethal gene mutation, Assay Code: SRLT, Evaluation Type: Evaluation A (Pre-1980)) was “no conclusion”.
`CCCCNC(=O)n1c(NC(=O)OC)nc2ccccc21` was tested, and the mutagenic call (Species/Cell Type: Allium cepa, Assay Type: Chromosome aberrations, Assay Code: ALC+, Evaluation Type: Evaluation A (Pre-1980)) was “active; positive”, the mutagenic call (Species/Cell Type: Aspergillus nidulans, Assay Type: Aneuploidy, chromosome aberrations, Assay Code: ASN+, Evaluation Type: Evaluation A (Pre-1980)) was “active; positive” and the mutagenic call (Species/Cell Type: Aspergillus nidulans, Assay Type: Mitotic recombination, Assay Code: ASG-, Evaluation Type: Evaluation A (Pre-1980)) was “inactive; negative”. The mutagenic call (Species/Cell Type: Escherichia coli WP2, Assay Type: Tryptophan reverse gene mutation, Assay Code: WP2T, Evaluation Type: Evaluation A (Pre-1980)) was “no conclusion”, the mutagenic call (Species/Cell Type: Escherichia coli WP2 UVRA, Assay Type: Tryptophan reverse gene mutation, Assay Code: WPU+, Evaluation Type: Evaluation A (Pre-1980)) was “active; positive” and the mutagenic call (Species/Cell Type: Saccharomyces cerevisiae, Assay Type: Mitotic recombination or gene conversion, Assay Code: YEC-, Evaluation Type: Evaluation A (Pre-1980)) was “inactive; negative”. The mutagenic call (Species/Cell Type: Salmonella typhimurium, Assay Type: Forward and reverse gene mutation, host-mediated assay, Assay Code: HMA-, Evaluation Type: Evaluation A (Pre-1980)) was “inactive; negative”.
For `Nc1cc2c(cn1)[nH]c1ccccc12`, the mutagenic call (Species/Cell Type: Human, Assay Type: Sister-chromatid exchange (SCE) in vitro, Assay Code: SC1+, Evaluation Type: Evaluation B (Post-1980)) was “active; positive” and the mutagenic call [1] was “active; positive”.
`O=C(O)c1ccccc1N=Nc1c(O)c(S(=O)(=O)O)cc2cc(S(=O)(=O)O)ccc12` was tested, and the mutagenic call (Species/Cell Type: Salmonella typhimurium (one or more of the five standard strains: TA98, TA100, TA1535, TA1537, and TA1538), Assay Type: Histidine reverse gene mutation, Ames assay, Assay Code: SALT, Evaluation Type: Evaluation A (Pre-1980)) was “no conclusion”.
In the case of `Oc1ccc(Cl)c(O)c1`, the mutagenic call [2] is reported as “no conclusion” and the mutagenic call (Species/Cell Type: Neurospora crassa, Assay Type: Aneuploidy, chromosome aberrations, Assay Code: NEN-, Evaluation Type: Evaluation A (Pre-1980)) is reported as “inactive; negative”.
`c1ccccc1` was tested, and the mutagenic call (Species/Cell Type: Human lymphocytes or leukocytes, Assay Type: Chromosome aberrations in vitro, Assay Code: CY7+, Evaluation Type: Evaluation A (Pre-1980)) was “active; positive”, the mutagenic call (Species/Cell Type: Human lymphocytes or leukocytes, Assay Type: Chromosome aberrations in vivo, Assay Code: CY8+, Evaluation Type: Evaluation A (Pre-1980)) was “active; positive” and the mutagenic call (Species/Cell Type: Human lymphocytes, Assay Type: Sister-chromatid exchange (SCE) in vitro, Assay Code: SCL+*, Activation: With metabolic activation, Evaluation Type: Evaluation B (Post-1980)) was “active; positive”. For the same compound, the mutagenic call (Species/Cell Type: Human lymphocytes, Assay Type: Sister-chromatid exchange (SCE) in vitro, Assay Code: SCL-, Evaluation Type: Evaluation A (Pre-1980)) was “inactive; negative”, the mutagenic call (Species/Cell Type: Human lymphocytes, Assay Type: Sister-chromatid exchange (SCE) in vivo, Assay Code: SCY+, Evaluation Type: Evaluation B (Post-1980)) was “active; positive” and the mutagenic call (Species/Cell Type: Human, Assay Type: Sister-chromatid exchange (SCE) in vitro, Assay Code: SC1+*, Activation: With metabolic activation, Evaluation Type: Evaluation B (Post-1980)) was “active; positive”. The mutagenic call (Species/Cell Type: Human, Assay Type: Sister-chromatid exchange (SCE) in vitro, Assay Code: SC1-, Evaluation Type: Evaluation A (Pre-1980)) was “inactive; negative”, the mutagenic call (Species/Cell Type: Mammalian polychromatic erythrocytes, Assay Type: Micronucleus test, chromosome aberrations, Assay Code: MNT+, Evaluation Type: Evaluation A (Pre-1980)) was “active; positive” and the mutagenic call (Species/Cell Type: Mouse, Sex: Male, Assay Type: Sperm morphology, Assay Code: SPI+, Evaluation Type: Evaluation A (Pre-1980)) was “active; positive”. The call [3] was “active; positive”, the mutagenic call [1] was “active; positive” and the mutagenic call (Species/Cell Type: Nonhuman, Assay Type: Sister-chromatid exchange (SCE) in vivo, Assay Code: SC3+D, Dose Response: With dose response, Evaluation Type: Evaluation B (Post-1980)) was “active; positive”. For the same compound, the mutagenic call (Species/Cell Type: Syrian hamster embryo (SA7/SHE) cells, Assay Type: Cell transformation, viral enhanced, Assay Code: CT7-, Evaluation Type: Evaluation A (Pre-1980)) was “inactive; negative” and the mutagenic call (Species/Cell Type: Tradescantia species, Assay Type: Gene mutation, Assay Code: TRM+D, Dose Response: With dose response, Evaluation Type: Evaluation A (Pre-1980)) was “active; positive”.
`COc1ccc(-c2csc(N)n2)cc1` was tested, and the mutagenic call (Species/Cell Type: Salmonella typhimurium, Serratia marcesens, Assay Type: Forward and reverse gene mutation, host-mediated assay, Assay Code: HM2T, Evaluation Type: Evaluation A (Pre-1980)) was “no conclusion”.
For `BrCC1CO1` (stereo not drawn), the mutagenic call (Species/Cell Type: Neurospora crassa, Assay Type: Reverse gene mutation, Assay Code: NER+, Evaluation Type: Evaluation A (Pre-1980)) was “active; positive”.
With `O=BOO` the mutagenic call [4] was “active; positive”.
In the case of `CCNNCC`, the call [3] is reported as “active; positive”.
With `NCCc1ccc(O)c(O)c1` the mutagenic call (Species/Cell Type: Human lymphocytes, Assay Type: Sister-chromatid exchange (SCE) in vitro, Assay Code: SCL-, Evaluation Type: Evaluation B (Post-1980)) was “inactive; negative”, the mutagenic call (Species/Cell Type: Human, Assay Type: Sister-chromatid exchange (SCE) in vitro, Assay Code: SC1-, Evaluation Type: Evaluation B (Post-1980)) was “inactive; negative” and the mutagenic call (Species/Cell Type: Mammalian polychromatic erythrocytes, Assay Type: Micronucleus test, chromosome aberrations, Assay Code: MNT-, Evaluation Type: Evaluation B (Post-1980)) was “inactive; negative”.
With `CCCCCCCCCCCCN(C)N=O` the mutagenic call (Species/Cell Type: Salmonella typhimurium (one or more of the five standard strains: TA98, TA100, TA1535, TA1537, and TA1538), Assay Type: Histidine reverse gene mutation, Ames assay, Assay Code: SAL+*, Activation: With metabolic activation, Evaluation Type: Evaluation A (Pre-1980)) was “active; positive”.
In the case of `COc1cc(/C=N/NC(=O)COc2ccc(Br)cc2CN2CCOCC2)ccc1O`, the mutagenic call (Species/Cell Type: Saccharomyces cerevisiae, Assay Type: Reverse gene mutation, Assay Code: YERT, Evaluation Type: Evaluation A (Pre-1980)) is reported as “no conclusion”.
For `CCOS(=O)(=O)OCCOS(=O)(=O)OCC`, the mutagenic call (Species/Cell Type: Schizosaccharomyces pombe, Assay Type: Reverse gene mutation, Assay Code: YEZ+, Evaluation Type: Evaluation A (Pre-1980)) was “active; positive”.
`O=C[C@H](O)[C@@H](O)[C@H](O)[C@H](O)CO` was tested, and the mutagenic call [2] was “no conclusion” and the mutagenic call (Species/Cell Type: Mouse, Sex: Male, Assay Type: Sperm morphology, Assay Code: SPI-, Evaluation Type: Evaluation A (Pre-1980)) was “inactive; negative”.
`c1ccc2nc3c(ccc4ccccc43)cc2c1` was tested, and the mutagenic call [1] was “active; positive”.
For `CC(=O)[O-].CC(=O)[O-].[OH-].[OH-].[OH-].[OH-].[Pb+2].[Pb+2].[Pb+2]`, the call [3] was “active; positive” and the mutagenic call (Species/Cell Type: Rodents, Sex: Male, Assay Type: Dominant lethal test, Assay Code: DLTT, Evaluation Type: Evaluation A (Pre-1980)) was “no conclusion”.
`C1N2CN3CN1CN(C2)C3` was tested, and the mutagenic call [4] was “active; positive”.
In the case of `COc1ccc(N)c2c1C(=O)c1ccccc1C2=O`, the mutagenic call (Species/Cell Type: Salmonella typhimurium (one or more of the five standard strains: TA98, TA100, TA1535, TA1537, and TA1538), Assay Type: Histidine reverse gene mutation, Ames assay, Assay Code: SAL+, Evaluation Type: Evaluation A (Pre-1980)) is reported as “active; positive”.
With `Cc1c(C(=O)O)c(O)cc2c1C(=O)c1c(O)c([C@@H]3O[C@@H](CO)[C@H](O)[C@@H](O)[C@H]3O)c(O)c(O)c1C2=O` the mutagenic call (Species/Cell Type: Bacillus subtilis (H17 vs M45), Assay Type: Rec-assay, spot test, DNA effects (bacterial DNA repair), Assay Code: REWT, Evaluation Type: Evaluation A (Pre-1980)) was “no conclusion” and the mutagenic call (Species/Cell Type: Bacillus subtilis (H17 vs M45T), Assay Type: Rec-assay, spot test, DNA effects (bacterial DNA repair), Assay Code: REXT, Evaluation Type: Evaluation A (Pre-1980)) was “no conclusion”.
